Reference: PubChem BioAssay AID449762 (Southern Research Specialized Biocontainment Screening …, 2010)
Records with an inconclusive call do not appear.

Tested on: M. tuberculosis H37Rv growth inhibition, 7H9 media
Experiment: M. tuberculosis growth inhibition, HTS (AID 449762);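 note: bacterial growth assessed after seven days of incubation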
Details: for IC90: measured here: IC90 growth inhibition

Compound | IC50 | IC90
CCc1ccc(N=Nc2ccc(O)c3[nH]cnc23)cc1 | 15.4 µM | > 100 µM
CC(=O)c1ccc(N2CCC(c3cc(-c4ccc(Cl)cc4Cl)n[nH]3)CC2)c([N+](=O)[O-])c1 | 18.2 µM | 26.1 µM
COc1ccc(CCNc2nc(N3CCCCC3)nc(N3CCCCC3)n2)cc1OC | 17.3 µM | 22.5 µM
CNc1ccc2oc(C[C@H]3O[C@@]4(CC[C@H]3C)O[C@H]([C@H](C)C(=O)c3ccc[nH]3)[C@H](C)C[C@H]4C)nc2c1C(=O)O | 1.1 µM | 1.97 µM
CC(C)(C)OC(=O)NNC(=S)NC1CCCCC1 | 21.2 µM | 23.8 µM
COc1ccccc1OC(=O)c1ccc(S(=O)(=O)N(C)C)cc1 | 9.96 µM | 18.4 µM
C=CCS/C(N)=N\N=C\c1c(O)ccc2ccccc12 | 12.2 µM | 48.6 µM
O=C(CN1CCCCC1)Nc1nnc(-c2ccc([N+](=O)[O-])cc2)s1 | 16.2 µM | 62.4 µM
O=C(O)Cc1c[nH]c2ccc(O)cc12 | – | > 100 µM
C=CCNCC(=O)N1N=C(c2ccc3ccccc3c2)CC1c1ccc(OC)cc1 (stereo unspecified) | 21.8 µM | 24.3 µM
Cc1cc(C)c2ccc(NN)nc2c1O | 3.6 µM | 4.95 µM
COc1ccc(C2(c3ccc(OC)cc3)NC(=O)N(CC(=O)Nc3ccc(OC(F)F)cc3)C2=O)cc1 | 29.9 µM | 79.9 µM
CCCCCC(O)c1cccc(OCc2ccc3ccccc3n2)c1 (stereo unspecified) | 44.7 µM | 50.5 µM
Cc1ccc2[nH]c(C)c(CCNC(=O)c3cc4cc([N+](=O)[O-])ccc4oc3=O)c2c1 | 8.49 µM | 16.5 µM
CCCCN(C)CCNC(=O)c1ccc(Cn2c(=S)[nH]c3ccc(Br)cc3c2=O)cc1 | 12.2 µM | 20 µM
CCOC(=O)c1c(C)[nH]c(N=Nc2ccc(OC)cc2)c1C | 1.71 µM | 5.55 µM
Cc1ccc(-c2nc3ccsc3c(=O)o2)cc1 | 0.61 µM | > 100 µM
COc1ccc(/C=N/Nc2nncn2N)cc1Br | 10.8 µM | 16.3 µM
CN=c1scc(-c2ccccc2Br)n1/N=C/c1ccc[nH]1 | 50 µM | 54.2 µM
CC(C)Cc1nc2oc3c(N4CCN(CCO)CC4)ncnc3c2c2c1CCCC2 | 18.3 µM | 26.1 µM
Cc1[nH][nH]c(=O)c1C(c1ccc(-c2ccc(Cl)c(Cl)c2)o1)c1c(C)[nH][nH]c1=O | 53.4 µM | 85.6 µM
O=C(CCS(=O)(=O)c1ccc(F)cc1)Nc1nc(-c2ccccn2)cs1 | 4.5 µM | 17.1 µM

Compound | IC50 | IC90
Cc1ccc(F)cc1CNC(=O)c1cc(COc2ccc3ncccc3c2)on1 | 29.2 µM | > 100 µM
O=C(COC(=O)C1CC2CCCC(C1)C2=O)NNC(=O)c1ccccc1F (stereo unspecified) | 9.47 µM | > 100 µM
O=C(OCc1csc(Nc2ccccc2)n1)c1ccc(Cl)cc1 | 17.1 µM | 45.7 µM
Cc1cc(=O)n2[nH]c(Nc3cccc(Cl)c3)nc2n1 | 20.4 µM | 33 µM
COc1ccc(-c2c(C#N)c(SCC(=O)c3cc4ccccc4oc3=O)nc(C)c2C(=O)Nc2ccccc2)cc1 | 45.9 µM | 75.6 µM
COc1ccc2c3n(nc2c1)CCN=C3c1cc(Cl)c(N)c(Cl)c1 | 12.8 µM | 31.9 µM
Cc1nn(-c2ccccc2)c(Cl)c1/C=C/C(=O)c1ccccc1 | 49.1 µM | 56.7 µM
Cc1ccc(C2C3=C(CC(C)(C)CC3=O)N=C3c4ccccc4C(=O)C32)cc1 (stereo unspecified) | 66.4 µM | 90.7 µM
Nc1[nH]n2c(=O)cc(-c3ccccc3)nc2c1N=Nc1ccc2c(c1)OCO2 | 23.4 µM | 26.6 µM
Cc1[nH]c2ccccc2c1C(=O)COC(=O)c1ccc([N+](=O)[O-])s1 | 0.59 µM | 2 µM
CC(C)c1ccc2c(c1)CCC1C(C)(CN)CCCC21C (stereo unspecified) | 15.7 µM | 25.6 µM
CCN(Cc1ccncc1)Cc1nc(-c2ccc(C(=O)OC)cc2)no1 | 15.3 µM | 41.6 µM
CC(=O)N1CCN(c2ccc(Oc3ccc([N+](=O)[O-])c(C(F)(F)F)c3)cc2)CC1 | 7.54 µM | 19.3 µM
Cc1ccc(-n2c(C)cc(/C=N/NC(N)=S)c2C)cc1 | 12.7 µM | 24.6 µM
Oc1ccc(/C=N/n2c3ccccc3c3ccccc32)cc1 | – | > 100 µM
Cc1ccc(C)c(N/C(N)=N/c2nc(C)cc(C)n2)c1 | 5.87 µM | 6.72 µM
COc1cc(OC)nc(Oc2ccccc2C(=O)Oc2ccc(Cl)cc2)n1 | 68.5 µM | > 100 µM
CCOc1ccc2nc(NC(=O)C34CC5CC(CC(NC(C)=O)(C5)C3)C4)sc2c1 | 17.8 µM | 28.4 µM
Cc1ccc(-n2cc(CNCCn3nc(C)cc3C)c(-c3ccc(F)cc3)n2)cc1 | 3.48 µM | 9.36 µM
COc1ccc(OCCCC(=O)OC(C)C(=O)Nc2ccccc2[N+](=O)[O-])cc1 (stereo unspecified) | 15.4 µM | > 100 µM
Cc1cc(C2N=C(N)Nc3nc4ccccc4n32)c(C)n1-c1ccccc1Cl (stereo unspecified) | 12.1 µM | 16.6 µM
O=[N+]([O-])c1ccc(-c2nc(-c3cccs3)c(-c3cccs3)[nH]2)cc1 | 21.7 µM | > 100 µM
